Test results reported in patent US20240368150A1 (Hoffmann-La Roche Inc., priority 2021, published 2024).
Where two headings read alike, the source gives them in different places.

Legend:
primary human T-cells [1] = system: primary human T-cells
primary human T-cells [2] = experiment: Proliferation assay after 5 days (CellTiter-Glo, CD3 stimulation; PBS counter screen); assay type: cell-based; conditions: CD3 stimulation; for Emax / Emax proliferation (% activation): 5 days, normalized to reference compound A1 as stimulator control = 100%, DMSO neutral control; for Emax: read-out: Emax proliferation (% activation); for EC50: primary human T-cells, CellTiter-Glo after 5 days, EC50 of fitted sigmoidal curve, read-out: Tcell Proliferation CD3 EC50
Procedure: Compounds are then added (see next section) to medium only plates.
Cells are assessed for proliferation 5 days later by measuring […] using CellTiterGlo (Promega).
After 5 days, for detection of ATP which is directly proportional to the number of cells present per well, the CellTiter-Glo® 2.0 Reagent is used. After visual control for toxicity or precipitations of the tested compounds, the plates are equilibrated to room temperature for 45 minutes. CellTiter-Glo® 2.0 Reagent is equilibrated to room temperature as well. After equilibration, an equal amount of CellTiter-Glo reagent is added to the cells (80 μl/well) with an electronic multichannel pipette. Plates are placed on a rocking platform for 15 minutes at room temperature. After incubation, the bottom of the plates is sealed with backing tape. Luminescence is measured with PHERAstar FSX (interval time 0.5 sec, gain 3000, focal height 15 mm) and exported as CSV file for analysis in Genedata screener.
Compounds which activate unstimulated cells (see IL2 measurements) or compounds which negatively affected viability were flagged.

EC50 (primary human T-cells [1])	SMILES	Emax (primary human T-cells [2]; Homo sapiens, T-cell, 120 h)	EC50 (primary human T-cells [2])	Emax proliferation (% activation) (primary human T-cells [2])	EC50 (primary human T-cells [2]; Homo sapiens, T-cell, 120 h)
799 nM	CC(Nc1nnc(-c2cc3c(cc2F)S(=O)(=O)C[C@H](N)C(=O)N3Cc2ccc(Cl)cc2)o1)C1CC1(F)F (single isomer, unassigned) [Example 495]	93%	263 nM		
> 10000 nM	CC(Nc1nnc(-c2cc3c(cc2F)S(=O)(=O)C[C@H](N)C(=O)N3Cc2ccc(Cl)cc2)o1)C1CC1(F)F (single isomer, unassigned) [Example 496]		1150 nM	91 % activation	
5810 nM	N[C@H]1C[S+]([O-])c2cc(F)c(-c3noc(N4CCOCC4)n3)cc2N(Cc2ccc(Cl)cc2)C1=O (single isomer, unassigned; epimer a) [Example 209]	92%			4100 nM
3080 nM	CC(C)(C)c1nc(-c2cc3c(cc2F)[S+]([O-])C[C@H](N)C(=O)N3Cc2ccc(Cl)cc2)no1 (single isomer, unassigned; epimer a) [Example 340]	121%	1350 nM		
> 10000 nM	CN1CC(c2nc(-c3cc4c(cc3F)[S+]([O-])C[C@H](N)C(=O)N4Cc3ccc(Cl)cc3)no2)CC(F)(F)C1 (single isomer, unassigned; epimer a) [Example 342]		4850 nM	80 % activation	
> 10000 nM	COC(F)(c1nnc(-c2ccc3c(c2)N(Cc2ccc(OC(F)(F)F)cc2)C(=O)[C@@H](N)C[S+]3[O-])o1)C(F)(F)F (single isomer, unassigned; epimer a) [Example 425]			81 % activation	1880 nM
	CCc1cn(-c2cc3c(cc2F)SC[C@H](N)C(=O)N3Cc2ccc(Cl)cc2)nn1 [Example 1, (3R)-3-amino-5-[(4-chlorophenyl)methyl]-7-(4-ethyltriazol-1-yl)-8-fluoro-2,3-dihydro-1,5-benzothiazepin-4-one]	33%			> 20000 nM
	N[C@H]1CSc2cc(F)c(-n3cc(Cc4ccc(Cl)cc4)nn3)cc2N(Cc2ccc(Cl)cc2)C1=O [Example 2, (3R)-3-amino-5-[(4-chlorophenyl)methyl]-7-[4-[(4-chlorophenyl)methyl]triazol-1-yl]-8-fluoro-2,3-dihydro-1,5-benzothiazepin-4-one]	34%			> 20000 nM
	N[C@H]1CS(=O)(=O)c2cc(F)c(-n3cc(Cc4ccc(Cl)cc4)nn3)cc2N(Cc2ccc(Cl)cc2)C1=O [Example 4, (3R)-3-amino-5-[(4-chlorophenyl)methyl]-7-[4-[(4-chlorophenyl)methyl]triazol-1-yl]-8-fluoro-1,1-dioxo-2,3-dihydro-1λ^6,5-benzothiazepin-4-one]	168%			1050 nM
	CCn1nnc(-c2cc3c(cc2F)S(=O)(=O)C[C@H](N)C(=O)N3Cc2ccc(Cl)cc2)n1 [Example 7, (3R)-3-amino-5-[(4-chlorophenyl)methyl]-7-(2-ethyltetrazol-5-yl)-8-fluoro-1,1-dioxo-2,3-dihydro-1λ^6,5-benzothiazepin-4-one]	264%			2750 nM
	N[C@H]1CS(=O)(=O)c2cc(F)c(-c3nc(C4CC4)no3)cc2N(Cc2ccc(Cl)cc2)C1=O [Example 40, (3R)-3-amino-5-[(4-chlorophenyl)methyl]-7-(3-cyclopropyl-1,2,4-oxadiazol-5-yl)-8-fluoro-1,1-dioxo-2,3-dihydro-1λ^6,5-benzothiazepin-4-one]	34%			> 20000 nM
	CCCc1noc(-c2cc3c(cc2F)S(=O)(=O)C[C@H](N)C(=O)N3Cc2ccc(Cl)cc2)n1 [Example 42, (3R)-3-Amino-5-[(4-chlorophenyl)methyl]-8-fluoro-1,1-dioxo-7-(3-propyl-1,2,4-oxadiazol-5-yl)-2,3-dihydro-1λ^6,5-benzothiazepin-4-one]	80%			1310 nM
	N[C@H]1CS(=O)(=O)c2cc(F)c(-c3nc(Cc4ccc(Cl)cc4)no3)cc2N(Cc2ccc(Cl)cc2)C1=O [Example 44, (3R)-3-Amino-5-[(4-chlorophenyl)methyl]-7-[3-[(4-chlorophenyl)methyl]-1,2,4-oxadiazol-5-yl]-8-fluoro-1,1-dioxo-2,3-dihydro-1λ^6,5-benzothiazepin-4-one]	122%			702 nM
	N[C@H]1CS(=O)(=O)c2cc(F)c(-c3nc(COCc4ccccc4)no3)cc2N(Cc2ccc(Cl)cc2)C1=O [Example 45, (3R)-3-Amino-7-[3-(benzyloxymethyl)-1,2,4-oxadiazol-5-yl]-5-[(4-chlorophenyl)methyl]-8-fluoro-1,1-dioxo-2,3-dihydro-1λ^6,5-benzothiazepin-4-one]	80%			1970 nM
	NCc1noc(-c2cc3c(cc2F)S(=O)(=O)C[C@H](N)C(=O)N3Cc2ccc(Cl)cc2)n1 [Example 50, (3R)-3-amino-7--[3-(aminomethyl)-1,2,4-oxadiazol-5-yl]-5-[(4-chlorophenyl)methyl]-8-fluoro-1,1-dioxo-2,3-dihydro-1λ^6,5-benzothiazepin-4-one]	40%			> 20000 nM
	CCc1noc(-c2ccc3c(c2)N(Cc2ccc(Cl)cc2)C(=O)[C@@H](N)CS3(=O)=O)n1 [Example 51, (3R)-3-amino-5-[(4-chlorophenyl)methyl]-7-(3-ethyl-1,2,4-oxadiazol-5-yl)-1,1-dioxo-2,3-dihydro-1λ^6,5-benzothiazepin-4-one]	94%			2690 nM
	N[C@H]1CS(=O)(=O)c2cc(F)c(-c3nnc(CCCC(F)(F)F)o3)cc2N(Cc2ccc(Cl)cc2)C1=O [Example 79, (3R)-3-Amino-5-[(4-chlorophenyl)methyl]-8-fluoro-1,1-dioxo-7-[5-(4,4,4-trifluorobutyl)-1,3,4-oxadiazol-2-yl]-2,3-dihydro-1λ^6,5-benzothiazepin-4-one]	154%			173 nM
	CCc1nc(-c2cc3c(cc2F)S(=O)(=O)C[C@H](N)C(=O)N3Cc2ccc(Cl)cc2)no1 [Example 290, (3R)-3-amino-5-[(4-chlorophenyl)methyl]-7-(5-ethyl-1,2,4-oxadiazol-3-yl)-8-fluoro-1,1-dioxo-2,3-dihydro-1λ^6,5-benzothiazepin-4-one]	139%			744 nM
	CC(C)(NCC(F)(F)F)c1nc(-c2cc3c(cc2F)S(=O)(=O)C[C@H](N)C(=O)N3Cc2ccc(Cl)cc2)no1 [Example 298, (3R)-3-amino-5-[(4-chlorophenyl)methyl]-8-fluoro-7-[5-[1-methyl-1-(2,2,2-trifluoroethylamino)ethyl]-1,2,4-oxadiazol-3-yl]-1,1-dioxo-2,3-dihydro-1λ^6,5-benzothiazepin-4-one]	162%			
	COC(=O)N1CCC(C)(c2nc(-c3cc4c(cc3F)S(=O)(=O)C[C@H](N)C(=O)N4Cc3ccc(Cl)cc3)no2)CC1 [Example 307, methyl 4-[3-[(3R)-3-amino-5-[(4-chlorophenyl)methyl]-8-fluoro-1,1,4-trioxo-2,3-dihydro-1λ^6,5-benzothiazepin-7-yl]-1,2,4-oxadiazol-5-yl]-4-methyl-piperidine-1-carboxylate]	143%			
	CC(C)(C)c1ncn(-c2cc3c(cc2F)S(=O)(=O)C[C@H](N)C(=O)N3Cc2ccc(Cl)cc2)n1 [Example 526, (3R)-3-amino-7-(3-tert-butyl-1,2,4-triazol-1-yl)-5-[(4-chlorophenyl)methyl]-8-fluoro-1,1-dioxo-2,3-dihydro-1λ^6,5-benzothiazepin-4-one]	125%			
